Reference: patent publication US9102628B2, “Derivatives of pyrazole 3,5-carboxylates, their preparation and their application in therapeutics” (SANOFI, priority 2007, dated 2015)

Target: T1, human recombinant soluble enzyme BACE1 (Homo sapiens, UniProt P56817)
T1 construct: purchased R&D Systems 931-AS
Assay: Test 1: Inhibition of soluble BACE1 (synthetic substrate S-10-R, HPLC/UV detection of cleavage product)
Assay type: biochemical
Settings: BACE1 20 nM, substrate S-10-R 350 μM, 1 hour at 37° C., sodium acetate/acetic acid buffer pH 4.5, 10% DMSO
Text: Test 1: Inhibition of Soluble BACE1
This test uses soluble BACE1 and a synthetic substrate of BACE1.
The human recombinant soluble enzyme BACE1 is available from R&D Systems (reference 931-AS).
The synthetic peptide, made up of the amino acid sequence Ser-Glu-Val-Asn-Leu-Asp-Ala-Glu-Phe-Arg (S-10-R, available from NeoMPS, reference SP000122), is used as synthetic substrate of BACE1.
This synthetic substrate incorporates the cleavage site of BACE1 and fluorescent or chromogenic groups, so that the cleavage products can then be detected, either with UV after separation by HPLC, or by measurement of fluorescence or of optical density. In the present case, the cleavage product Asp-Ala-Glu-Phe-Arg, released during hydrolysis of S-10-R by BACE1, is quantified by UV detection [195 nm] after separation by HPLC with a gradient of acetonitrile from 2% to 100% [HP1100, Agilent; Column Atlantis dC18 (5 mm×2.1 mm; 3 μm)]. […]
The percentage inhibition of the activity of BACE1 by the compounds of the invention is determined as a function of the amount of cleavage product detected by HPLC: the smaller the amount of cleavage product detected, the greater the inhibitory activity of the compounds.
The values of IC50 are then calculated from the percentage inhibition previously determined, in relation to the concentration of the test compounds.

T1 sequence (P56817 46-457 limits assumed): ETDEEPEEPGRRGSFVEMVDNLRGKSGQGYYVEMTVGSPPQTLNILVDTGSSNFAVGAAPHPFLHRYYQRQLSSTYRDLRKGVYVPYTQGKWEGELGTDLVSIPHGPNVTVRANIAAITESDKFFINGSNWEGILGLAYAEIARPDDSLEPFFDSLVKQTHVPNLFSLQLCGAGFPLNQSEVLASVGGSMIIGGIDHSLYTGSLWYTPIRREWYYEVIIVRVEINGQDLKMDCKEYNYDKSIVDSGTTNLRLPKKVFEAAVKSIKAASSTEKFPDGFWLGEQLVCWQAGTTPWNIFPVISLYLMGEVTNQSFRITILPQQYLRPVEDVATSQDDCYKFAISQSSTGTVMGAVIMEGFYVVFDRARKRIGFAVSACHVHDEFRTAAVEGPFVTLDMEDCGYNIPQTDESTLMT

Row | IC50 [nM] | SMILES
1 | 73 | CCCC1CCCCN1C(=O)c1cc(C(=O)N[C@@H](Cc2cc(F)cc(F)c2)[C@H](O)CNC2(c3cccc(C(F)(F)F)c3)CC2)nn1CC (stereo partly drawn) [compound 53, N-{(1S,2R)-1-(3,5-difluorobenzyl)-2-hydroxy-3-({1-[3-(trifluoromethyl)phenyl]cyclopropyl}amino)propyl}-1-ethyl-5-[(2-propylpiperidin-1-yl)carbonyl]-1H-pyrazole-3-carboxamide]
2 | 2000 | CCN(Cc1ccccc1)NC(=O)c1cc(C(=O)N[C@@H](Cc2ccccc2)[C@H](O)CNCc2cccc(C(F)(F)F)c2)nn1CC [compound 69, 5-[(2-benzyl-2-ethylhydrazino)carbonyl]-N-[(1S,2R)-1-benzyl-2-hydroxy-3-{[3-(trifluoromethyl)benzyl]amino}propyl]-1-ethyl-1H-pyrazole-3-carboxamide]
